Source: BigSolDB 2.1

SMILES: CCOC(=O)[C@@H](C)Oc1ccc(Oc2nc3ccc(Cl)cc3o2)cc1
- solubility (mole fraction) (in ethanol, 278.15 K): 0.000972
- solubility (mole fraction) (in ethanol, 283.15 K): 0.00121
- solubility (mole fraction) (in ethanol, 288.15 K): 0.0015
- solubility (mole fraction) (in ethanol, 293.15 K): 0.00186
- solubility (mole fraction) (in ethanol, 298.15 K): 0.00224
- solubility (mole fraction) (in ethanol, 303.15 K): 0.00266
- solubility (mole fraction) (in ethanol, 308.15 K): 0.00314
- solubility (mole fraction) (in ethanol, 313.15 K): 0.00376
- solubility (mole fraction) (in ethanol, 318.15 K): 0.00446
- solubility (mole fraction) (in ethanol, 323.15 K): 0.00534
- solubility (mole fraction) (in water, 278.15 K): 1.93e-06
- solubility (mole fraction) (in water, 283.15 K): 2.91e-06
- solubility (mole fraction) (in water, 288.15 K): 4.12e-06
- solubility (mole fraction) (in water, 293.15 K): 5.68e-06
- solubility (mole fraction) (in water, 298.15 K): 7.36e-06
- solubility (mole fraction) (in water, 303.15 K): 9.61e-06
- solubility (mole fraction) (in water, 308.15 K): 1.24e-05
- solubility (mole fraction) (in water, 313.15 K): 1.59e-05
- solubility (mole fraction) (in water, 318.15 K): 2.03e-05
- solubility (mole fraction) (in water, 323.15 K): 2.57e-05
